Structures can show the parent of a compound that is named as a salt. Blank lines part the entries; values can stand above or below the molecule they belong to.
Legend:
biosimilar RITUXAN® = assay: Viscosity of aqueous solutions of biosimilar RITUXAN® with viscosity-lowering agents; conditions: 25° C.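 Further: absolute viscosity of aqueous antibody solutions determined by microfluidic viscometry (mVROC chip, 50 micron channel) at several flow rates after 5 min equilibration, mean of at least three readings.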
Protocol: All viscosities of well-mixed aqueous mAb solutions were measured using either a mVROC microfluidic viscometer (RheoSense) or a DV2T cone and plate viscometer (Brookfield; “C & P”) after a 5 minute equilibration at 25° C. […] The mVROC viscometer was equipped with an “A” or “B” chip, each manufactured with a 50 micron channel. Typically, 0.10 mL of protein solution was back-loaded into a gastight microlab instrument syringe (Hamilton; 100 μL), affixed to the chip, and measured at multiple flow rates, approximately 20%, 40%, and 60% of the maximum pressure for each chip. […] An average absolute viscosity and standard deviation was then calculated from at least these three measurements. The C & P viscometer was equipped with a CPE40 or CPE52 spindle (cone angle of 0.8° and 3.0°, respectively) and 0.50 mL samples were measured at multiple shear rates between 2 and 400 s^−1. […] An extrapolated zero-shear viscosity was then determined from a plot of dynamic viscosity versus shear rate for the samples measured on a DV2T cone and plate viscometer. The extrapolated zero-shear viscosities reported are the average and standard deviation of at least three measurements.
(§2) Viscosities were measured using a RheoSense mVROC microfluidic viscometer equipped with an “A” or “B” chip.

biosimilar ERBITUX® = assay: Viscosity of aqueous solutions of biosimilar ERBITUX® with viscosity-lowering agents; conditions: 25° C.; for Fold Reduction: vs phosphate buffer
Protocol: All viscosities of well-mixed aqueous mAb solutions were measured using either a mVROC microfluidic viscometer (RheoSense) or a DV2T cone and plate viscometer (Brookfield; “C & P”) after a 5 minute equilibration at 25° C. (unless otherwise indicated). The mVROC viscometer was equipped with an “A” or “B” chip, each manufactured with a 50 micron channel. Typically, 0.10 mL of protein solution was back-loaded into a gastight microlab instrument syringe (Hamilton; 100 μL), affixed to the chip, and measured at multiple flow rates, approximately 20%, 40%, and 60% of the maximum pressure for each chip. […] An average absolute viscosity and standard deviation was then calculated from at least these three measurements. The C & P viscometer was equipped with a CPE40 or CPE52 spindle (cone angle of 0.8° and 3.0°, respectively) and 0.50 mL samples were measured at multiple shear rates between 2 and 400 s^−1. […] An extrapolated zero-shear viscosity was then determined from a plot of dynamic viscosity versus shear rate for the samples measured on a DV2T cone and plate viscometer. The extrapolated zero-shear viscosities reported are the average and standard deviation of at least three measurements.
First, Polysorbate 80 was removed using DETERGENT-OUT® TWEEN® Medi Columns (G-Biosciences). […] The collected protein solution was freeze-dried. The dried protein cakes, containing protein and buffer salts or agent, were reconstituted to a final volume of 0.15-1.3 mL. […] Reported protein concentrations represent the range of all protein samples included in each Table or Figure. Specifically, reported values are the median plus or minus half the range. Extrapolated zero-shear using an experimentally determined extinction coefficient of 1.4 L/g·cm and viscosities reported were measured on a DV2T cone and plate viscometer.
The final concentration of CSAL upon reconstitution in an aqueous CSAL solution ranged from 0.25 M to 0.50 M.
Specifically, 20 mM solutions of the viscosity-lowering agents of interest were used for buffer exchange, and the lyophilized cakes were reconstituted to 0.25 M of each viscosity-lowering agent. […] The sample was first aliquoted. […] The dried protein cakes, containing protein and viscosity-lowering agent (and a negligible amount of buffer salts) were reconstituted to a final volume of approximately 0.10 mL and viscosity-lowering agent concentration as previously described.
First, Polysorbate was removed from the commercially obtained mAb solutions.
Specifically, 20 mM solutions of the salts of interest were used for buffer exchange, and the lyophilized cakes were reconstituted to contain 0.25 M of each agent. Viscosities were measured using either a RheoSense mVROC microfluidic viscometer equipped with an “A” or “B” chip or a DV2T cone and plate viscometer.
(§3) Subsequently, the aqueous drug product was purified, buffer exchanged, concentrated, dried, reconstituted, and analyzed as described in the same manner. Viscosities reported were measured on a RheoSense mVROC microfluidic viscometer.

HERCEPTIN® = assay: Viscosity of aqueous solutions of HERCEPTIN® with viscosity-lowering agents; type: physicochemical; conditions: 25° C.
Protocol: All viscosities of well-mixed aqueous mAb solutions were measured using either a mVROC microfluidic viscometer (RheoSense) or a DV2T cone and plate viscometer (Brookfield; “C & P”) after a 5 minute equilibration at 25° C. (unless otherwise indicated). The mVROC viscometer was equipped with an “A” or “B” chip, each manufactured with a 50 micron channel. Typically, 0.10 mL of protein solution was back-loaded into a gastight microlab instrument syringe (Hamilton; 100 μL), affixed to the chip, and measured at multiple flow rates, approximately 20%, 40%, and 60% of the maximum pressure for each chip. […] An average absolute viscosity and standard deviation was then calculated from at least these three measurements. The C & P viscometer was equipped with a CPE40 or CPE52 spindle (cone angle of 0.8° and 3.0°, respectively) and 0.50 mL samples were measured at multiple shear rates between 2 and 400 s^−1. Specifically, samples were measured for 30 seconds each at 22.58, 24.38, 26.25, 28.13, 30, 31.88, 45, 67.5, 90, 112.5, 135, 157.5, 180, 202.5, 247, 270, 292.5, 315, 337.5, 360, 382, 400 s^−1, starting at a shear rate that gave at least 10% torque, and continuing until instrument torque reached 100%. An extrapolated zero-shear viscosity was then determined from a plot of dynamic viscosity versus shear rate for the samples measured on a DV2T cone and plate viscometer. The extrapolated zero-shear viscosities reported are the average and standard deviation of at least three measurements.
as §2
Viscosities reported were measured on a RheoSense mVROC microfluidic viscometer.

VECTIBIX® = assay: Viscosity of aqueous solutions of VECTIBIX® with viscosity-lowering agents; type: physicochemical; conditions: 0.25M agent, 25° C., pH 7.0
Source text: (§1) (unless otherwise indicated).

REMICADE® [1] = assay: Viscosity of aqueous solutions of […]® with viscosity-lowering agents; type: physicochemical; conditions: for Viscosity: 25° C.
Protocol: as §1
An extrapolated zero-shear viscosity was determined from a plot of absolute viscosity versus shear rate.
Following reconstitution, the viscosity of each solution was measured using the microfluidic viscometer as described in previous examples. The solutions were then back-loaded into 1 mL BD insulin syringes with 27, 29, or 31 gauge fixed needles. The force required to extrude the concentrated […]® solutions was then measured using an Instron at a rate of displacement equivalent to a fluid flow rate of 3 mL/min. The expelled solution was collected from the syringe and analyzed by size-exclusion chromatography.

TYSABRI® = assay: Viscosity of aqueous solutions of TYSABRI® with viscosity-lowering agents; type: physicochemical; conditions: 25° C.
Protocol: All viscosities of well-mixed aqueous mAb solutions were measured using either a mVROC microfluidic viscometer (RheoSense) or a DV2T cone and plate viscometer (Brookfield; “C & P”) after a 5 minute equilibration at 25° C. […] The mVROC viscometer was equipped with an “A” or “B” chip, each manufactured with a 50 micron channel. Typically, 0.10 mL of protein solution was back-loaded into a gastight microlab instrument syringe (Hamilton; 100 μL), affixed to the chip, and measured at multiple flow rates, approximately 20%, 40%, and 60% of the maximum pressure for each chip. […] An average absolute viscosity and standard deviation was then calculated from at least these three measurements. The C & P viscometer was equipped with a CPE40 or CPE52 spindle (cone angle of 0.8° and 3.0°, respectively) and 0.50 mL samples were measured at multiple shear rates between 2 and 400 s^−1. Specifically, samples were measured for 30 seconds each at 22.58, 24.38, 26.25, 28.13, 30, 31.88, 45, 67.5, 90, 112.5, 135, 157.5, 180, 202.5, 247, 270, 292.5, 315, 337.5, 360, 382, 400 s^−1, starting at a shear rate that gave at least 10% torque, and continuing until instrument torque reached 100%. An extrapolated zero-shear viscosity was then determined from a plot of dynamic viscosity versus shear rate for the samples measured on a DV2T cone and plate viscometer. The extrapolated zero-shear viscosities reported are the average and standard deviation of at least three measurements.
as §2, §3

biosimilar AVASTIN® = assay: Viscosity of aqueous solutions of biosimilar AVASTIN® with viscosity-lowering agents; type: physicochemical
Protocol: as §1
The protein was formulated to contain either 0.25 M phosphate buffer or 0.25 M CSAL.
Subsequently, the appropriate amount of viscosity-lowering agent was added to result in a final viscosity-lowering agent concentration of 0.15-0.35 M upon reconstitution.
The viscosity-lowering agent(s) were added in an amount sufficient to give concentration upon reconstitution as specified below. In cases of combinations of agents, the concentration of each component is 0.15 M. The protein solutions were then freeze-dried.

antigen = assay: Antigen binding, […]®-specific ELISA assay; conditions: 227 mg/mL, pH 7, 0.25M CSAA, storage at 4° C.
Protocol: Biophysical properties of solutions of […]® formulated with 0.25 M CSAA were assessed over 90 days. Samples of […]® formulated with 0.25 M CSAA were prepared as described in Example 1 above. […] (Table 20). Additionally, antigen binding of this processed […]® protein was measured with a […]®-specific ELISA assay and no decrease in binding was seen between days 0 and […] (Table 20).

REMICADE® [2] = assay: Monomer content of […]® solutions by size exclusion chromatography; type: physicochemical; conditions: lyophilized powder (cake containing CSAA) stored at 4° C.; reconstituted after 75 days
[3] = 222 ± 5 mg/mL mAb, pH 7.0, 0.25M agent
[4] = 166 ± 4 mg/mL REMICADE, 0.25M agent, pH 7.0
[5] = 222 ± 6 mg/mL REMICADE, 0.25M agent, pH 7.0
[6] = 200 ± 5 mg/mL mAb, pH 7.0, 25° C., [Salt] 0.25 M of anion, C & P viscometer
[7] = 223 mg/mL mAb, agent […], 25° C.
[8] = 202 ± 2 mg/mL RITUXAN, 0.25M agent, pH 7.0

Molecule: Cl.N=C(N)NCCC[C@H](N)C(=O)O [Arginine•HCl, arginine HCl, reference compound]
Viscosity (biosimilar RITUXAN®; 220 mg/mL RITUXAN (footnote *), 0.45M agent, pH 7.0): 86.8 ± 1.8 | Viscosity (biosimilar RITUXAN®; 202 ± 2 mg/mL RITUXAN, 0.45M agent, pH 7.0): 46.9 ± 0.8 | Viscosity (biosimilar ERBITUX®; [3]): 45.3 ± 0.5 cP | Fold Reduction (biosimilar ERBITUX®; [3]): 24.9 fold | Viscosity (HERCEPTIN®; 216 ± 0 mg/mL HERCEPTIN, 0.25M salt, pH 7.0): 44.8 ± 1.1 cP | Viscosity (HERCEPTIN®; 254 ± 3 mg/mL HERCEPTIN, 0.25M salt, pH 7.0): 116 ± 24 cP | Viscosity (HERCEPTIN®; 270 ± 6 mg/mL HERCEPTIN, 0.25M salt, pH 7.0): 179 ± 17 cP | Viscosity (VECTIBIX®; 233 ± 4 mg/mL VECTIBIX): 24.7 ± 1.3 cP | Viscosity (VECTIBIX®; 252 ± 3 mg/mL VECTIBIX): 36.2 ± 1.0 cP | Viscosity (REMICADE® [1]; [4]): 110 ± 1 cP | Viscosity (REMICADE® [1]; [5]): 486 ± 34 cP | Viscosity (TYSABRI®; 230 ± 2 mg/mL TYSABRI, 0.25M agent, pH 7.0): 37.0 ± 0.1 cP | Viscosity (TYSABRI®; 237 ± 4 mg/mL TYSABRI, 0.25M agent, pH 7.0): 52.3 ± 4.5 cP | Viscosity (TYSABRI®; 276 ± 8 mg/mL TYSABRI, 0.25M agent, pH 7.0): 97.2 ± 5.7 cP | Viscosity (biosimilar AVASTIN®; [6]): 83.2 ± 2.8 cP | Viscosity (biosimilar AVASTIN®; 200 ± 5 mg/mL mAb, pH 7.0, 25° C., [Salt] 0.3 M of anion, C & P viscometer): 71.8 ± 2.2 cP

Molecule: CSA-Na-Ornidazole
Viscosity (biosimilar RITUXAN®; 188 mg/mL mAb, […] agent): 40.7 ± 0.5 cP | Viscosity (biosimilar RITUXAN®; 242 mg/mL mAb, […] agent): 63.0 ± 3.5 cP | Viscosity (HERCEPTIN®; 232 mg/mL HERCEPTIN, […] agent): 60.1 ± 0.6 cP

Molecule: CN1[C@@H]2C[C@@H](OC(=O)[C@H](CO)c3ccccc3)C[C@H]1[C@@H]1O[C@@H]12 [Scopolamine HBr, reference compound]
Viscosity (biosimilar RITUXAN®; 197 mg/mL mAb, […] agent): 42.3 ± 1.0 cP | Viscosity (biosimilar ERBITUX®; 173 mg/mL mAb, […] agent): 23.4 ± 0.6 cP | Viscosity (biosimilar AVASTIN®; 210 mg/mL mAb, agent […], 25° C.): 35.3 ± 1.1 cP | Viscosity (biosimilar AVASTIN®; [7]): 64.0 ± 0.8 cP | Viscosity (biosimilar AVASTIN®; 238 mg/mL mAb, agent […], 25° C.): 87.8 ± 1.5 cP

Molecule: Colistin sulfate salt [reference compound]
Viscosity (biosimilar RITUXAN®; 230 mg/mL mAb, […] agent): 228 ± 19 cP | Viscosity (biosimilar ERBITUX®; 203 mg/mL mAb, […] agent): 138 ± 4 cP | Viscosity (biosimilar AVASTIN®; 240 mg/mL mAb, agent […], 25° C.): 261 ± 58 cP

Molecule: CC1(C)C2CCC1(CS(=O)(=O)O)C(=O)C2 (centres unmarked) [CSA sodium salt, Camphorsulfonic acid]
Viscosity (biosimilar RITUXAN®; [8]): 76.1 ± 1.3 | Viscosity (biosimilar ERBITUX®; [3]): 393 ± 14 cP | Fold Reduction (biosimilar ERBITUX®; [3]): 2.9 fold | Viscosity (biosimilar AVASTIN®; [6]): 55.7 ± 0.2 cP

Molecule: sulfosalicylic acid di-arginine [Sulfosalicylic acid diarginine]
Viscosity (biosimilar RITUXAN®; 220 mg/mL RITUXAN (footnote *), 0.25M agent, pH 7.0): 68.3 ± 0.8 | Viscosity (biosimilar RITUXAN®; [8]): 44.1 ± 0.1 | Viscosity reduction (REMICADE® [1]; 0.25M agent vs PB, Table 17): about 29 fold | Viscosity (REMICADE® [1]; [4]): 27.1 ± 0.3 cP | Viscosity (REMICADE® [1]; [5]): 55.9 ± 1.8 cP | Viscosity (biosimilar AVASTIN®; 228 ± 5 mg/mL mAb, agent […], 25° C., pH 7.0): 81.6 ± 1.7 cP

Molecule: CCN(CC)CCOC(=O)c1ccc(N)cc1 [Procaine HCl, reference compound]
Viscosity (biosimilar RITUXAN®; 195 mg/mL mAb, […] agent): 33.4 ± 1.2 cP | Viscosity (biosimilar RITUXAN®; 222 mg/mL mAb, […] agent): 46.2 ± 1.1 cP | Viscosity (biosimilar ERBITUX®; 230 mg/mL mAb, […] agent): 35.9 ± 0.3 cP | Viscosity (HERCEPTIN®; 222 mg/mL HERCEPTIN, […] agent): 41.8 ± 0.6 cP | Viscosity (REMICADE® [1]; 174 mg/mL REMICADE, […] agent): 23.4 ± 0.2 cP | Viscosity (TYSABRI®; 228 mg/mL TYSABRI, […] agent): 45.1 ± 1.5 cP | Viscosity (biosimilar AVASTIN®; 188 mg/mL mAb, agent […], 25° C.): 40.8 ± 0.9 cP | Viscosity (biosimilar AVASTIN®; 222 mg/mL mAb, agent […], 25° C.): 65.8 ± 0.8 cP

Molecule: CC1(C)S[C@@H]2[C@H](NC(=O)Cc3ccccc3)C(=O)N2[C@H]1C(=O)[O-].[Na+] [Penicillin G sodium salt, reference compound]
Viscosity (biosimilar RITUXAN®; 207 mg/mL mAb, […] agent): 114 ± 7 cP | Viscosity (biosimilar ERBITUX®; 178 mg/mL mAb, […] agent): 82.1 ± 3.6 cP

The next lines start with results.

Viscosity (biosimilar RITUXAN®; 210 mg/mL mAb, 0.10M agent): 67.1 ± 1.1 cP | Viscosity (biosimilar ERBITUX®; 179 mg/mL mAb, 0.10M agent): 37.4 ± 0.9 cP | Viscosity (biosimilar ERBITUX®; 199 mg/mL mAb, 0.10M agent): 54.8 ± 0.2 cP | Viscosity (biosimilar AVASTIN®; 200 mg/mL mAb, agent 0.10M, 25° C.): 27.9 ± 0.6 cP | Viscosity (biosimilar AVASTIN®; 219 mg/mL mAb, agent 0.10M, 25° C.): 58.6 ± 1.6 cP | Viscosity (biosimilar AVASTIN®; 228 mg/mL mAb, agent 0.10M, 25° C.): 71.8 ± 0.9 cP
Molecule: CCN(CC)CCCC(C)Nc1ccnc2cc(Cl)ccc12 (centres unmarked) [Chloroquine Phosphate, reference compound]

Viscosity (biosimilar RITUXAN®; 215 mg/mL mAb, […] agent): 49.5 ± 1.2 cP | Viscosity (biosimilar ERBITUX®; 183 mg/mL mAb, […] agent): 19.7 ± 0.2 cP | Viscosity (biosimilar AVASTIN®; 203 mg/mL mAb, agent […], 25° C.): 53.8 ± 2.4 cP
Molecule: CN/C(=N/CCSCc1nc[nH]c1C)NC#N [Cimetidine HCl, reference compound]

Viscosity (biosimilar RITUXAN®; 222 mg/mL mAb, […] agent): 198 ± 17 cP | Viscosity (biosimilar ERBITUX®; 190 mg/mL mAb, […] agent): 120 ± 2 cP | Viscosity (biosimilar AVASTIN®; 198 mg/mL mAb, agent […], 25° C.): 301 ± 5 cP
Molecule: CO/N=C(\C(=O)N[C@@H]1C(=O)N2C(C(=O)O)=C(CSc3nc(=O)c(=O)[nH]n3C)CS[C@H]12)c1csc(N)n1 [Ceftriaxone sodium salt, reference compound]

% binding (ELISA) (antigen; day 0): 105 ± 14% | % binding (ELISA) (antigen; day 30): 98 ± 12% | % binding (ELISA) (antigen; day 100): 101 ± 5%
Molecule: REMICADE ®: infliximab, mAb against TNF-α; here concentrated solution formulated with 0.25 M CSAA
% Monomer (SEC) (REMICADE® [2]): 98.9 ± 0.1%

Viscosity (biosimilar RITUXAN®; 204 mg/mL mAb, […] agent): 51.2 ± 0.8 cP | Viscosity (biosimilar ERBITUX®; 180 mg/mL mAb, […] agent): 23.0 ± 0.2 cP | Viscosity (biosimilar AVASTIN®; 168 mg/mL mAb, agent […], 25° C.): 37.9 ± 0.6 cP | Viscosity (biosimilar AVASTIN®; 237 mg/mL mAb, agent […], 25° C.): 308 ± 34 cP
Molecule: CN1C2CCCC1CC(NC(=O)c1nn(C)c3ccccc13)C2 (centres unmarked) [Granisetron HCl, reference compound]

Viscosity (HERCEPTIN®; 230 mg/mL HERCEPTIN, […] agent): 69.9 ± 2.3 cP | Viscosity (TYSABRI®; 233 mg/mL TYSABRI, […] agent): 75.8 ± 0.4 cP | Viscosity (biosimilar AVASTIN®; 189 mg/mL mAb, agent […], 25° C.): 45.1 ± 0.9 cP
Molecule: O=C([O-])CCCC[C@@H]1SC[C@@H]2NC(=O)N[C@@H]21.[Na+] [Biotin-Na]

Viscosity (biosimilar RITUXAN®; 205 mg/mL mAb, […] agent): 130 ± 2 cP | Viscosity (biosimilar ERBITUX®; 176 mg/mL mAb, […] agent): 103 ± 3 cP | Viscosity (biosimilar ERBITUX®; 199 mg/mL mAb, […] agent): 178 ± 2 cP
Molecule: CC[C@@H](C(N)=O)N1CCCC1=O [Levetiracetam, reference compound]

Viscosity (biosimilar RITUXAN®; 234 mg/mL mAb, […] agent): 111 ± 8 cP | Viscosity (biosimilar AVASTIN®; 230 mg/mL mAb, agent […], 25° C.): 147 ± 4 cP
Molecule: OC[C@H]1O[C@H](O[C@]2(CCl)O[C@H](CCl)[C@@H](O)[C@@H]2O)[C@H](O)[C@@H](O)[C@H]1Cl [Sucralose]

Viscosity (biosimilar RITUXAN®; 185 mg/mL mAb, […] agent): 46.8 ± 0.6 cP | Viscosity (biosimilar AVASTIN®; [7]): 129 ± 3 cP
Molecule: Cc1cccc(C)c1NC(=O)C1CCCCN1C (centres unmarked) [Mepivacaine HCl, reference compound]

From US9925263B2, “Liquid pharmaceutical formulations for injection comprising procaine and uses thereof” (EAGLE BIOLOGICS, INC., priority 2013, dated 2018)
